According to ChEMBL document CHEMBL1201862, “PubChem BioAssay data set” (2004):
Calls of active or inactive are those of the source.

Legend:
[1] = target: Mitogen-activated protein kinase 10 (Homo sapiens, UniProt P53779); test: Dose response biochemical screening assay for inhibitors of c-Jun N-Terminal Kinase 3 (JNK3). [Related pubchem assays: 746 ]
[2] = target: T1, Voltage-gated N-type calcium channel alpha-1B subunit/Amyloid beta A4 precursor protein-binding family A member 1 (Homo sapiens, UniProt Q00975+Q02410); assay type: protein assay
[3] = target: Glucose-6-phosphate 1-dehydrogenase (Homo sapiens, UniProt P11413); test: inhibition of Homo sapiens G6PD, dose series – biochemical, fluorescence, selectivity assay for P. falciparum G6PD inhibitor project, dose response (AID 504792); assay type: functional
[4] = target: T2, Rac GTPase-activating protein 1 (Homo sapiens, UniProt Q9H0H5); test: blockers of MgcRacGAP-driven Rac1 GTP hydrolysis – biochemical, ADP Hunter fluorescence, primary and confirmatory, confirmation (AID 624330); assay type: functional
T2 sequence (Q9H0H5 whole entry): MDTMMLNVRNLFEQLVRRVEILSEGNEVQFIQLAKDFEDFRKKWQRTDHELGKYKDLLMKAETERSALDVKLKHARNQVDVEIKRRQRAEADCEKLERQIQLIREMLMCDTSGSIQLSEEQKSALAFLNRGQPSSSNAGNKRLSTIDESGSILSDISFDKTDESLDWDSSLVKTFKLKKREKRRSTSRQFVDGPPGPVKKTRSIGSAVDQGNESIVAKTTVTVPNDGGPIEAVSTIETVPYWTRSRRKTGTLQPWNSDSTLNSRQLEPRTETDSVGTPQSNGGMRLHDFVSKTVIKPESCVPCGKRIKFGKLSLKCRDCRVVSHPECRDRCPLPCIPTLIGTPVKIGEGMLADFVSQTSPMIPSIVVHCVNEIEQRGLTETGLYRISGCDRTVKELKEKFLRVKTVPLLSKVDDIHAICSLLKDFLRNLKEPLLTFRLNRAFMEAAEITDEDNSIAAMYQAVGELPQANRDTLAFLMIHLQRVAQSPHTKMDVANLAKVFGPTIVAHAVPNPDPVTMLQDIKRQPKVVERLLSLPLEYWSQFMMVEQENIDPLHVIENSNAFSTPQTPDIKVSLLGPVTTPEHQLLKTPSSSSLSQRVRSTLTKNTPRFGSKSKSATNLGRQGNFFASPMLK

Beta Lactamase = Beta Lactamase (Pseudomonas aeruginosa, UniProt Q932Y6); test: BLA reporter interference, concentration series – BLA reporter cells, FRET fluorescence, artefact control for NOD2-RIPK2 interaction inhibitor project, dose response (AID 651552); assay type: functional, cell-based
[5] = target: T1, Voltage-gated N-type calcium channel alpha-1B subunit/Amyloid beta A4 precursor protein-binding family A member 1; assay type: protein assay; remark: listed apart in the source
Large T antigen = Large T antigen (Simian virus 40, UniProt P03070); assay type: functional, Betapolyomavirus macacae;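 further: Confirmatory-stage PubChem screen for compounds that inhibit SV40 T antigen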
[6] = Fluorescence-based cell-based high throughput dose response assay for inhibitors of the interaction of nucleotide-binding oligomerization domain containing 2 (NOD2) and the receptor-interacting serine-threonine kinase 2 (RIPK2).; assay type: functional; conditions: Homo sapiens
[7] = target: T3, Sentrin-specific protease 1 (Homo sapiens, UniProt Q9P0U3); test: Dose response confirmation of small molecule inhibitors of the catalytic domain of the SUMO protease, SENP1 in a FRET assay.; assay type: functional; conditions: read-out: IC50_Mean
[8] = target: 72 kDa type IV collagenase (Homo sapiens, UniProt P08253); test: Dose Response validation of uHTS RPN11 inhibitor hits using a MMP-2 Fluorescence assay.; assay type: functional
Prothrombin = Prothrombin (Bos taurus, UniProt P00735); test: thrombin protease inhibitors – biochemical, fluorescence polarization, uHTS hits, dose response (AID 602369); assay type: functional
[9] = target: 26S proteasome non-ATPase regulatory subunit 14 (Homo sapiens, UniProt O00487); test: inhibition of proteasome subunit RPN11 – biochemical, fluorescence polarization, uHTS hits, confirmation (AID 602368); assay type: functional
[10] = target: T3, Sentrin-specific protease 1; test: SENP1 catalytic domain blockers, concentration series – biochemical, kinetic FRET, dose response (AID 651697); assay type: functional; conditions: read-out: IC50_Mean
[11] = target: T4, Probable nicotinate-nucleotide adenylyltransferase (Staphylococcus aureus (strain N315), UniProt P65502); assay type: functional, Staphylococcus aureus subsp. aureus N315;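 on IC50 Mean: confirmatory dose-response retesting of NadD inhibitor hits first found in an ultra-high-throughput screen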
[12] = target: T4, Probable nicotinate-nucleotide adenylyltransferase; assay type: functional, Staphylococcus aureus subsp. aureus N315; conditions: read-out: IC50_Mean
[13] = target: Eukaryotic translation initiation factor 4E (Mus musculus, UniProt P63073); test: blockers of eIF4G binding by eIF4E – biochemical, TR-FRET, dose response (AID 855); assay type: functional;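 further: potency for disrupting eIF4E binding to eIF4GI seen as loss of FRET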
Beta-lactamase [14] = target: Beta-lactamase (Salmonella choleraesuis (strain SC-B67), UniProt Q5J463)
[15] = target: T5, Short transient receptor potential channel 4 (Mus musculus, UniProt Q9QUQ5); test: calcium entry via TRPC4 opening agents – cell-based, HEK293 TRPC4/mu-opioid, Fluo-4 calcium, dose response (AID 434937); assay type: functional
T5 sequence (Q9QUQ5 whole entry): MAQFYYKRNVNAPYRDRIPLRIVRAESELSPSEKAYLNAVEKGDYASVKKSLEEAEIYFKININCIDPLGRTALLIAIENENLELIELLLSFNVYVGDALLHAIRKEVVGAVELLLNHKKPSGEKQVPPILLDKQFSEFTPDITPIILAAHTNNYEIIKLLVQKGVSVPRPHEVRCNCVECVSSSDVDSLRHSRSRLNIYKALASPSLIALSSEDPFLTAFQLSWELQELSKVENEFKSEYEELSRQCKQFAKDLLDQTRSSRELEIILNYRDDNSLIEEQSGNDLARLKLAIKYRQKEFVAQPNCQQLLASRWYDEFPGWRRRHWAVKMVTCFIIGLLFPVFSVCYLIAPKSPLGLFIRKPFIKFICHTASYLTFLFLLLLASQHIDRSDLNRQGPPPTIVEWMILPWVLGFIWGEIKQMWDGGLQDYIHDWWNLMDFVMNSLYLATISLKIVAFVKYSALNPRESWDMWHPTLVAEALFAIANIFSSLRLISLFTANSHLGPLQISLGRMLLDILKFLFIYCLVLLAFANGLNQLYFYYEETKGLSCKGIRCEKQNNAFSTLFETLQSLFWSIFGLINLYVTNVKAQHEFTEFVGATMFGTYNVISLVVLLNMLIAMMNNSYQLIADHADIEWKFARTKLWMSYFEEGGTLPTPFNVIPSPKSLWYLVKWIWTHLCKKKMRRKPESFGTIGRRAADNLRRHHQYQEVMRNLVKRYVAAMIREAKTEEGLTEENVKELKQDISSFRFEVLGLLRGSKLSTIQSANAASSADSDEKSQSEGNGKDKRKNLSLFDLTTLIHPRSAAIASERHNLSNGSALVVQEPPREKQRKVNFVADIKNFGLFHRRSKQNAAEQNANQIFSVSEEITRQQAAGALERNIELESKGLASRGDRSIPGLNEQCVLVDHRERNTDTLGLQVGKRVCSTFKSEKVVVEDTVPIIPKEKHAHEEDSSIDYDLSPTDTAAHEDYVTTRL

Beta-lactamase [16] = target: Beta-lactamase (Pseudomonas aeruginosa, UniProt Q79MP6);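 further: biochemical dose-response test of metallo-beta-lactamase enzyme inhibition, read out by epi-absorbance; purified recombinant IMP-1 metallo-beta-lactamase with nitrocefin as substrate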
Mu-type opioid receptor = Mu-type opioid receptor (Homo sapiens, UniProt P35372); assay type: functional, cell-based;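 further: U2OS cells with beta-arrestin recruitment to OPRM1 by beta-gal complementation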
[17] = target: 5-hydroxytryptamine receptor 2A (Mus musculus, UniProt P35363); assay type: functional, cell-based;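 further: CHO-K1 cells with tagged receptor and beta-arrestin; agonist potency measured as compound-induced activation of the receptor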
[18] = target: T6, Methionyl-tRNA synthetase, putative (Trypanosoma brucei brucei, UniProt Q38C91); assay type: functional, Trypanosoma brucei brucei strain 927/4 GUTat10.1
T6 sequence (Q38C91 whole entry): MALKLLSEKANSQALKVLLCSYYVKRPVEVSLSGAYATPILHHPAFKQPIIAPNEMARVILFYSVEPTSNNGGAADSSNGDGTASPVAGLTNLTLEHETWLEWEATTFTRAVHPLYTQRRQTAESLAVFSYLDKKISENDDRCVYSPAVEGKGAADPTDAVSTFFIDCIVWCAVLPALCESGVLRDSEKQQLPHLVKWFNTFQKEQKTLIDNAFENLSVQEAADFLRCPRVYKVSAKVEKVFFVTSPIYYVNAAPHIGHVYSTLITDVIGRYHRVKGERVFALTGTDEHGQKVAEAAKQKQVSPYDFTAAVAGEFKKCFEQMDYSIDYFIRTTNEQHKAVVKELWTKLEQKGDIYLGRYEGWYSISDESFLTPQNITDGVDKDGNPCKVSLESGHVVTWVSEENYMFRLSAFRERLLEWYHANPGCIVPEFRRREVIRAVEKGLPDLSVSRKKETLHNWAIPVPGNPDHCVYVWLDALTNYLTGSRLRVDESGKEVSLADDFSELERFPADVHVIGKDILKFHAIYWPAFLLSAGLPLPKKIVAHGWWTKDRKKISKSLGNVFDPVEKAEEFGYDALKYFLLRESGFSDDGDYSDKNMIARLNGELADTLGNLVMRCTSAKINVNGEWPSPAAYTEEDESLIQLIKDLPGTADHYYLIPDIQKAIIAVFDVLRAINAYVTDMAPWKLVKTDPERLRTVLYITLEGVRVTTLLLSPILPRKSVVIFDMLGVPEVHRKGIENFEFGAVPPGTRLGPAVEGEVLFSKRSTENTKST

[19] = Counterscreen for IDE inhibitors: Luminescence-based cell-based high throughput dose response assay to identify compounds that are cytotoxic to HEK cells. [Related pubchem assays: 434962 (Primary screen (IDE inhibitors in singlicate)), 449730 (Counterscreen (Cytotoxicity in triplicate)), 435028 (Confirmation (IDE inhibitors in triplicate)) …; assay type: functional; conditions: HEK293
[20] = Counterscreen for inhibitors of Trypanosoma brucei methionyl tRNA synthetase (MetRS): Luminescence-based cell-based high throughput dose response assay to identify compounds that are cytotoxic to Jurkat human T lymphocyte cells.; assay type: functional
[21] = target: DNA repair and recombination protein RAD54-like (Homo sapiens, UniProt Q92698); test: RAD54 Holliday junction migration blockers – biochemical, fluorescence, cherry-picked samples, dose series, confirmation (AID 651657); assay type: functional
[22] = target: T6, Methionyl-tRNA synthetase, putative; assay type: functional, Trypanosoma brucei brucei strain 927/4 GUTat10.1; remark: listed apart in the source
Insulin-degrading enzyme = target: T7, Insulin-degrading enzyme (Homo sapiens, UniProt P14735); test: Dose Response: Fluorescence polarization-based cell-based high throughput dose response assay for inhibitors of insulin-degrading enzyme (IDE). [Related pubchem assays: 434962 (Primary screen (IDE inhibitors in singlicate)), 449730 (Counterscreen (Cytotoxicity in triplicate)), 435028 (Confirmation (IDE inhibitors in triplicate)), 434984 (Summary …; assay type: functional
T7 sequence (P14735 whole entry): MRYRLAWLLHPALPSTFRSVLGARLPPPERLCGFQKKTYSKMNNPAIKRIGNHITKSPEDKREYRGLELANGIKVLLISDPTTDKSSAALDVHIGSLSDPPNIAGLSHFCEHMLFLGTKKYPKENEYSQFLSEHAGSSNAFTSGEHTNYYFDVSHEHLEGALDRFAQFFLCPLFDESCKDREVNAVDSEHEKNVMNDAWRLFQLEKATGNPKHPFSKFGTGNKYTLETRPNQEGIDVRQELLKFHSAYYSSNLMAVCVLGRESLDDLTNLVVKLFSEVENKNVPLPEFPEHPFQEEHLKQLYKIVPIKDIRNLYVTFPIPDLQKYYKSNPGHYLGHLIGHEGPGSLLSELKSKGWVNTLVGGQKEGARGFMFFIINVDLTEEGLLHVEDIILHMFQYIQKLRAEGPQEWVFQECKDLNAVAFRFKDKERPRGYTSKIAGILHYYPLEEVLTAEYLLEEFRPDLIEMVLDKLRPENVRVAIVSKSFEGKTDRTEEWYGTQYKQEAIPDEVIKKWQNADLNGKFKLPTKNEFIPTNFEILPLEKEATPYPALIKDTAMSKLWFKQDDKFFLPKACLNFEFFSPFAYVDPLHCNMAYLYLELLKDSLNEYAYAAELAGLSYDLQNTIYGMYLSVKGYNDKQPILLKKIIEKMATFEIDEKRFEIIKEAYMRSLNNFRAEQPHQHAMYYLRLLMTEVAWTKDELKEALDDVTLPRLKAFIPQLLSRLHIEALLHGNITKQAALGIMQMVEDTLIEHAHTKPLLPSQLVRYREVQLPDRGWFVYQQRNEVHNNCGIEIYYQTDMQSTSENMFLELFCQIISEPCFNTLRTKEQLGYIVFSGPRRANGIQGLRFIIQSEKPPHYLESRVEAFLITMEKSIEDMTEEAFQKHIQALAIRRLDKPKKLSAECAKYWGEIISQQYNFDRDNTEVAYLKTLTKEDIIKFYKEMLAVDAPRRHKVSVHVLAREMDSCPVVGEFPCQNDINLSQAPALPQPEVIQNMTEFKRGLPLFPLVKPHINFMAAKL

T4 sequence (P65502 whole entry): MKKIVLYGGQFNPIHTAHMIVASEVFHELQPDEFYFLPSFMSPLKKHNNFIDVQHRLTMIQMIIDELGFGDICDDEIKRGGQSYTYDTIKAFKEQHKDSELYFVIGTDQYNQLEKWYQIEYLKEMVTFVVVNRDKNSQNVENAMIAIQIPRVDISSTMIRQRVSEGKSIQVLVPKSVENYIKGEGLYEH
T1 sequence (Q00975 whole entry): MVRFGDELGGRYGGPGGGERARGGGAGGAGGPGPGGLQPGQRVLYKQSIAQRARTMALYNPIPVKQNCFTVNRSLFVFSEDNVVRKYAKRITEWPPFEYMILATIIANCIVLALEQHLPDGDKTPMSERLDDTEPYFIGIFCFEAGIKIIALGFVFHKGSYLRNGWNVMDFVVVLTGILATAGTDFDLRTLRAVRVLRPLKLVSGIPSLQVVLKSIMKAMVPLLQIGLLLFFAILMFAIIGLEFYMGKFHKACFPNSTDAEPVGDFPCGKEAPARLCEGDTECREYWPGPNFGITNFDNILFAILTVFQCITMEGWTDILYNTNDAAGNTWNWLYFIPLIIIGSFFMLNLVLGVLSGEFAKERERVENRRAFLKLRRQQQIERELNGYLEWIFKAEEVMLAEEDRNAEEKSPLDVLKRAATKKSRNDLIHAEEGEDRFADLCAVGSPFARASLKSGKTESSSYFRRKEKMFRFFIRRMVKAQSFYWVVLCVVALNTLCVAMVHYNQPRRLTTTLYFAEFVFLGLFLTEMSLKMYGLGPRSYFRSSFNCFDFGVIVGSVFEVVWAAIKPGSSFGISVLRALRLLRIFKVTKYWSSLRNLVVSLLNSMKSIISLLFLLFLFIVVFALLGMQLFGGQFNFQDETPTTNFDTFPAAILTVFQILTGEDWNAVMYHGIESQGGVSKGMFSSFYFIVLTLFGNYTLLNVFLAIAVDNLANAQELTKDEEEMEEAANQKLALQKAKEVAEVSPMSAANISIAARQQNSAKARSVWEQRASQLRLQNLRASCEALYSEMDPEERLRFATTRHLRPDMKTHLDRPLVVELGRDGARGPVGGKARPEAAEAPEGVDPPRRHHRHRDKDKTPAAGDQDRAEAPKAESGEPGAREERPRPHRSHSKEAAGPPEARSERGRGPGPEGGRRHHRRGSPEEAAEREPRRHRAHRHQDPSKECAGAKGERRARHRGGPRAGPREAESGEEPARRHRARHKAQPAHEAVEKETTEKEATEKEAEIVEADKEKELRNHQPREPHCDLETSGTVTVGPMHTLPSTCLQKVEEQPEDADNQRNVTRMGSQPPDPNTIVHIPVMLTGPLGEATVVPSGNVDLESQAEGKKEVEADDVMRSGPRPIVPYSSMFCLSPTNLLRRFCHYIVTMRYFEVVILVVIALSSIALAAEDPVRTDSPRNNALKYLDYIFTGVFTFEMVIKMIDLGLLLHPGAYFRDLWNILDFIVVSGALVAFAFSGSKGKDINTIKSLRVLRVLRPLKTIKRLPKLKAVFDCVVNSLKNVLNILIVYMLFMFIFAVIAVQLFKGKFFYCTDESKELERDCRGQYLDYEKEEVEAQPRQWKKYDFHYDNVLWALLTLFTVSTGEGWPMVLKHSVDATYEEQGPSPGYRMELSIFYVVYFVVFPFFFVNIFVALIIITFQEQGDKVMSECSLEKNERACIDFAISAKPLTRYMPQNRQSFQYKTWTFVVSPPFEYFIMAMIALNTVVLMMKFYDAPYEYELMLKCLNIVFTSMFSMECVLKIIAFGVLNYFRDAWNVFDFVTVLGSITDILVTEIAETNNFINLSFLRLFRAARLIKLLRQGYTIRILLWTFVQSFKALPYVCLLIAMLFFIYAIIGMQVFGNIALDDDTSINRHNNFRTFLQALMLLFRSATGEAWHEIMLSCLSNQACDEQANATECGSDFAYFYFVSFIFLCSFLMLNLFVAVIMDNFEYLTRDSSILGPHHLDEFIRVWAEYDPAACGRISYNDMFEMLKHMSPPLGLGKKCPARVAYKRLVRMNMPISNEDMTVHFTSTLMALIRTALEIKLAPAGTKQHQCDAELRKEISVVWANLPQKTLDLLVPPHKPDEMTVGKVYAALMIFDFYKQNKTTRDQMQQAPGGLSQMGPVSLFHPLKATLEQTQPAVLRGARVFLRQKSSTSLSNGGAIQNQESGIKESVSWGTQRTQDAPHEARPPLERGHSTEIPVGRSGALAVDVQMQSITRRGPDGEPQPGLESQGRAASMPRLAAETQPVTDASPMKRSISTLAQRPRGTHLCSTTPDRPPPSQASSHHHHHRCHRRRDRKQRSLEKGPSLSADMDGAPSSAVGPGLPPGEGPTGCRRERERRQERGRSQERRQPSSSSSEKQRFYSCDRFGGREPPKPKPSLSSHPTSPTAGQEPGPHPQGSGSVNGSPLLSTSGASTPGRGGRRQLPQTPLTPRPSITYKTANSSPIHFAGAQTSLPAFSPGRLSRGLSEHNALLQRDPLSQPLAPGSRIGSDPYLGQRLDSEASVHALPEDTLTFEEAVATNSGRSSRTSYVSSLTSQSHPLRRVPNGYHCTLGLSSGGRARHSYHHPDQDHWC
T1 sequence (Q02410 whole entry): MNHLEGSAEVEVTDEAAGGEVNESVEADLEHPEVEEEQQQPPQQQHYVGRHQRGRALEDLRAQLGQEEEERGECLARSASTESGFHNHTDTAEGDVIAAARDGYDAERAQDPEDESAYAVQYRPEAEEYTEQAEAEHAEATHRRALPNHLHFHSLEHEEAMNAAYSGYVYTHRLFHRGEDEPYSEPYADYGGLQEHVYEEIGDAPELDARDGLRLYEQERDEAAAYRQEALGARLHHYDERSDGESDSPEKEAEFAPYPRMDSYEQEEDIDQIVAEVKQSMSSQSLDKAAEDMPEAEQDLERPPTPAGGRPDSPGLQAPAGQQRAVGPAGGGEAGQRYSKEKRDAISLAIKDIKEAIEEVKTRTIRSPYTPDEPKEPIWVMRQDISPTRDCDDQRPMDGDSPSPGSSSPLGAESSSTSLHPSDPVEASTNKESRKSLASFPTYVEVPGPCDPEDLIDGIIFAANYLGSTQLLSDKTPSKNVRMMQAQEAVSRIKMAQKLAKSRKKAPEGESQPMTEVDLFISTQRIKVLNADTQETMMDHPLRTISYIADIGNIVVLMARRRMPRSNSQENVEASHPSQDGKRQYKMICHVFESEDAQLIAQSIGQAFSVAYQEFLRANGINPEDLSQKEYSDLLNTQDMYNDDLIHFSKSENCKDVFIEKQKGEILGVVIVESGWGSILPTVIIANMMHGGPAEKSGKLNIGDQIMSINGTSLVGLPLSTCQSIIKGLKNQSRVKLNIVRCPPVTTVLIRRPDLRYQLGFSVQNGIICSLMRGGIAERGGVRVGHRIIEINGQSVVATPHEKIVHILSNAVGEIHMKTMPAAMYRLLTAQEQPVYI
T3 sequence (Q9P0U3 whole entry, the tested form may be a part): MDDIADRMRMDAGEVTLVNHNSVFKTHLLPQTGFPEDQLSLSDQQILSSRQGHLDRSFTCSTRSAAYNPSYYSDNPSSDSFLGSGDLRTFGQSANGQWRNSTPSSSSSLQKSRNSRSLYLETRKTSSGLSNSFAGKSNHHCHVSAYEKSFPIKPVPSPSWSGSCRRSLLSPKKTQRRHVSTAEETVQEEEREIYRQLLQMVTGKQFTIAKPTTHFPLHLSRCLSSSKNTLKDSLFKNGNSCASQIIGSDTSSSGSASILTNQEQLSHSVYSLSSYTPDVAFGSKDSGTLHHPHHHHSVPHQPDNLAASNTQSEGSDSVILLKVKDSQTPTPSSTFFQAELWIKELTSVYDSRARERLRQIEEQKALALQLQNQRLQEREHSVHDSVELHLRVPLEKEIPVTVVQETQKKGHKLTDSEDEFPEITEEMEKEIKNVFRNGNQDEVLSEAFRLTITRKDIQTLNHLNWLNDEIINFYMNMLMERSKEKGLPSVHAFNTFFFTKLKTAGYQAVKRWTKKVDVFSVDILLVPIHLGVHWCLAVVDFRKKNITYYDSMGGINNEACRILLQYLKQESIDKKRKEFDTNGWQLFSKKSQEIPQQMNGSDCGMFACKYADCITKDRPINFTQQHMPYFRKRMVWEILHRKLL
Chain of 5-hydroxytryptamine receptor 2A (P35363 whole entry): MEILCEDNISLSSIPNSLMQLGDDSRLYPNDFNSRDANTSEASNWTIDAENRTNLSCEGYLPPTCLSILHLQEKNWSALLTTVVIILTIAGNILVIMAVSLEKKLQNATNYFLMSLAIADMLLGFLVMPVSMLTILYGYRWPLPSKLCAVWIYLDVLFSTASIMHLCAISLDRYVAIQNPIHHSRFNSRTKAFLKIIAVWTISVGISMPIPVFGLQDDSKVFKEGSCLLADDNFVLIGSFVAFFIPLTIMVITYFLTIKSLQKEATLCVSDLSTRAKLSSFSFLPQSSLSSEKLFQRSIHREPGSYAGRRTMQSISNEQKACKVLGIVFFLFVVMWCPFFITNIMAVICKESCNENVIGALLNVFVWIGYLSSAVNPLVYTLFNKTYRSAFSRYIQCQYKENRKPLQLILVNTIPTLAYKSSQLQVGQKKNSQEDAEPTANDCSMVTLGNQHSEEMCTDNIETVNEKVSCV
Chain of Beta-lactamase (Pseudomonas aeruginosa, UniProt Q79MP6) (Q79MP6 whole entry): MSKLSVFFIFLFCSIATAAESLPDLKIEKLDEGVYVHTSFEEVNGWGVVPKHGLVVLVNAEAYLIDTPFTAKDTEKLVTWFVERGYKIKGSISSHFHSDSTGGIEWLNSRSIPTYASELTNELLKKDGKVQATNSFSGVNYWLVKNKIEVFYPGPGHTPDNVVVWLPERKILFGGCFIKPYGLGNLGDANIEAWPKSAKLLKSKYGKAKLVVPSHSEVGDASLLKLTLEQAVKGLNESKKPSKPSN
Chain of Eukaryotic translation initiation factor 4E (P63073 whole entry): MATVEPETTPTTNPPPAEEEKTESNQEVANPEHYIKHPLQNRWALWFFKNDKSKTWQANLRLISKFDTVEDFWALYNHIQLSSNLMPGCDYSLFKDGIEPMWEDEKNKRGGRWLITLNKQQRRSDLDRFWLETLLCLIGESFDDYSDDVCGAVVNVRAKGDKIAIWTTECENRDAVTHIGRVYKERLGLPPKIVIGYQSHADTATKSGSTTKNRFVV

CC1=C(C)C[S+]([O-])N(S(=O)(=O)c2ccc(Cl)cc2)C1 (configuration not stated)
IC50 [1]: > 93.1 µM (not active)
IC50 [2]: 30.9 µM (active)
IC50 [3]: > 80 µM (inactive)
IC50 [4]: 71.9 µM (active)
IC50 (Beta Lactamase): 25.8 µM (inactive)
IC50 [5]: > 50 µM (inactive)
IC50 (Large T antigen): 18.1 µM (active)
IC50 [6]: 5.57 µM (active)

COc1ccc2c(C)cc(SCC(=O)N3CCOCC3)nc2c1
IC50 [7]: 7.01 µM (active)
IC50 [8]: > 100 µM (inactive)
IC50 (Prothrombin): 21.6 µM (active)
IC50 [9]: 9.61 µM (active)
IC50 [10]: 13.3 µM (active)

Cc1ccc(-c2cc(-c3ccc(Cl)cc3)c(C#N)c(N)n2)o1
IC50 [11]: 0.461 µM (active)
IC50 [12]: 0.808 µM (active)
IC50 [13]: > 64 µM (inactive)

O=C1/C(=C\c2cc(Cl)c(O)c(Cl)c2)SC(=S)N1Cc1ccccc1
IC50 (Beta-lactamase [14]): 3.15 µM (active)
EC50 [15]: 5.31 µM (active)
IC50 (Beta-lactamase [16]): > 59.6 µM (inactive)

CN(C)S(=O)(=O)c1cc(NC(=O)CN2CCN(c3ccccc3)CC2)ccc1Cl
EC50 (Mu-type opioid receptor): 92.4 µM (inactive)
EC50 [17]: 30.5 µM (inactive)

Clc1ccc2[nH]c3c(NCCCN4CCOCC4)ncnc3c2c1
IC50 [18]: 9.1 µM (active)
IC50 [19]: 14.3 µM (not active)
IC50 [20]: 59.8 µM (inactive)
AC50 [21]: 33.7 µM (active)
IC50 [22]: 11.3 µM (inactive)
IC50 (Insulin-degrading enzyme): 10.9 µM (not active)
